pIC50: −log10 of the molar value. Read-outs that look alike come from different tables or passages of the source.
Columns and labels:
HTT = assay: HiBiT protein abundance assay, HTT HiBiT K562 cell line; type: cell-based, human; settings: 24 hours, top dose 10 μM
Outline: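 Tagged-protein abundance measured by split-NanoBiT luminescence after lysis, following 24 h compound exposure (37° C; 10 μM top, 3-fold, 10 points; DMSO ≤0.25%) of HiBiT knock-in K562 cells. Percent response vs DMSO and unmodified-cell controls; 4-parameter logistic interpolation at 50% gave IC50.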

MYB mRNA = assay: RT-qPCR splicing assay, MYB canonical junction (CJ) and alternative junction (AJ) mRNA; type: cell-based, human; settings: Homo sapiens; for AC50: increase in MYB alternative junction (AJ) mRNA, read-out: MYB AJ AC50
Outline: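 Splicing switches were read by TaqMan RT-qPCR on lysates, quantifying exon-exon junctions of the canonical and alternative-exon isoforms. Lysates came from K562 (GAPDH/GUSB reference) or A673 (PPIA reference) cells exposed 24 h to compound in 11 threefold steps from 10 uM, with DMSO ≤0.25%.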

[1] = HiBiT K562 cell line, read-out: Effect on protein abundance, HTT (IC50 category)
[2] = canonical junction qPCR panel, Table 5, read-out: MYB (decrease in CJ mRNA levels, IC50)
[3] = decrease in MYB canonical junction (CJ) mRNA, RT-qPCR, read-out: MYB CJ IC50
[4] = HiBiT lytic detection, modified K562 cells, read-out: Effect on protein abundance, HTT (IC50)

pIC50 (HTT; [1]) | pIC50 (MYB mRNA; [2]) | pIC50 (MYB mRNA; [3]) | pIC50 (HTT; [4]) | SMILES | AC50 (MYB mRNA; RT-qPCR)
6.00 to 7.00 | > 7.00 | 6.00 to 7.00 |  | Cc1c(O)c(-c2ncc3c(=O)n([C@H]4CC[C@H](N(C)C)CC4)ccc3n2)cc2cn(C)nc12 [Compound 1459, 6-((1r,4r)-4-(dimethylamino)cyclohexyl)-2-(6-hydroxy-2,7-dimethyl-2H-indazol-5-yl)pyrido[4,3-d]pyrimidin-5(6H)-one] | < 0.1 µM
6.00 to 7.00 | 6.00 to 7.00 | 6.00 to 7.00 |  | Cc1c(O)c(-c2ncc3c(=O)n([C@H]4CC[C@@H](N(C)C)CC4)ccc3n2)cc2cn(C)nc12 [Compound 1460, 6-((1s,4s)-4-(dimethylamino)cyclohexyl)-2-(6-hydroxy-2,7-dimethyl-2H-indazol-5-yl)pyrido[4,3-d]pyrimidin-5(6H)-one] | 0.1 to 1 µM
6.00 to 7.00 | > 7.00 | > 7.00 |  | Cc1c(O)c(-c2ncc3c(=O)n([C@H]4CCN[C@H](C)C4)ccc3n2)cc2cn(C)nc12 [Compound 1461, 2-(6-hydroxy-2,7-dimethyl-indazol-5-yl)-6-[(2R,4S)-2-methyl-4-piperidyl]pyrido[4,3-d]pyrimidin-5-one] | < 0.1 µM
> 7.00 | > 7.00 | > 7.00 |  | Cc1c(O)c(-c2ncc3c(=O)n([C@@H]4CCN[C@@H](C)C4)ccc3n2)cc2cn(C)nc12 [Compound 1462, 2-(6-hydroxy-2,7-dimethyl-indazol-5-yl)-6-[(2S,4R)-2-methyl-4-piperidyl]pyrido[4,3-d]pyrimidin-5-one] | < 0.1 µM
6.00 to 7.00 | 6.00 to 7.00 | 6.00 to 7.00 |  | Cc1c(O)c(-c2ccc3c(=O)n([C@@H]4C[C@@H](C)N[C@@H](C)C4)ccc3n2)cc2cn(C)nc12 [Compound 1463, 6-[(2S,6R)-2,6-dimethyl-4-piperidyl]-2-(6-hydroxy-2,7-dimethyl-indazol-5-yl)-1,6-naphthyridin-5-one] | 0.1 to 1 µM
6.00 to 7.00 | > 7.00 | 6.00 to 7.00 |  | Cc1c(O)c(-c2ccc3c(=O)n([C@H]4C[C@@H](C)N[C@@H](C)C4)ccc3n2)cc2cn(C)nc12 [Compound 1464, 6-[(2S,6R)-2,6-dimethyl-4-piperidyl]-2-(6-hydroxy-2,7-dimethyl-indazol-5-yl)-1,6-naphthyridin-5-one] | < 0.1 µM
6.00 to 7.00 | 6.00 to 7.00 | 6.00 to 7.00 |  | Cn1cc2cc(-c3ncc4c(=O)n([C@H]5CCNC5)ccc4n3)c(O)c(F)c2n1 [Compound 1465] | 0.1 to 1 µM
 | 6.00 to 7.00 | 6.00 to 7.00 | 6.00 to 7.00 | Cn1cc2cc(-c3ncc4c(=O)n([C@@H]5CCNC5)ccc4n3)c(O)c(F)c2n1 [Compound 1466] | 0.1 to 1 µM
 | 6.00 to 7.00 | 6.00 to 7.00 | 6.00 to 7.00 | Cc1c(O)c(-c2ccc3c(=O)n(C4CCNC4)cc(C)c3n2)cc2cn(C)nc12 (centres unmarked) [Compound 1467] | 0.1 to 1 µM
 | > 7.00 | > 7.00 | 6.00 to 7.00 | Cn1cc2cc(-c3ncc4c(=O)n(C56CCC(N)(CC5)C6)ccc4n3)c(O)c(F)c2n1 [Compound 1468] | < 0.1 µM
 | 6.00 to 7.00 | 6.00 to 7.00 | 5.00 to 6.00 | Cc1cn2cc(-c3ncc4c(=O)n(C56CCC(N)(CC5)C6)ccc4n3)cc(F)c2n1 [Compound 1469, 6-(4-aminonorbornane-1-yl)-2-(8-fluoro-2-methyl-imidazo[1,2-a]pyridin-6-yl)pyrido[4,3-d]pyrimidin-5-one] | 0.1 to 1 µM
 | 6.00 to 7.00 | 6.00 to 7.00 | 5.00 to 6.00 | Cn1cc2cc(-c3ncc4c(=O)n(C56CCC(N)(CC5)C6)ccc4n3)c(O)cc2n1 [Compound 1470] | 0.1 to 1 µM
 | 6.00 to 7.00 | 6.00 to 7.00 | 6.00 to 7.00 | Cc1c(O)c(-c2ncc3c(=O)n([C@@H]4CC[C@@H](N)C4)ccc3n2)cc2cn(C)nc12 [Compound 1476, 6-[(1R,3R)-3-aminocyclopentyl]-2-(6-hydroxy-2,7-dimethyl-indazol-5-yl)pyrido[4,3-d]pyrimidin-5-one] | 0.1 to 1 µM
 | > 7.00 | > 7.00 | > 7.00 | Cc1c(O)c(-c2ncc3c(=O)n([C@@H]4CC[C@H](N)C4)ccc3n2)cc2cn(C)nc12 [Compound 1477] | < 0.1 µM
 | > 7.00 | 6.00 to 7.00 | 6.00 to 7.00 | CNC12CCC(n3ccc4nc(-c5cc6cn(C)nc6c(C)c5O)ncc4c3=O)(CC1)C2 [Compound 1479] | < 0.1 µM
 | > 7.00 | 6.00 to 7.00 | > 7.00 | Cc1c(O)c(-c2ncc3c(=O)n([C@H]4CCNC5(CC5)C4)ccc3n2)cc2cn(C)nc12 [Compound 1512] | < 0.1 µM

pIC50 (HTT; [1]) | pIC50 (MYB mRNA; [2]) | pIC50 (MYB mRNA; [3]) | pIC50 (HTT; [4]) | SMILES | AC50 (MYB mRNA; RT-qPCR)
 | > 7.00 | 6.00 to 7.00 | 6.00 to 7.00 | Cc1c(O)c(-c2nc(C)c3c(=O)n([C@@H]4CCNC5(CC5)C4)ccc3n2)cc2cn(C)nc12 [Compound 1515, (R)-2-(6-hydroxy-2,7-dimethyl-2H-indazol-5-yl)-4-methyl-6-(4-azaspiro[2.5]octan-7-yl)pyrido[4,3-d]pyrimidin-5(6H)-one] | < 0.1 µM
 | 6.00 to 7.00 | 6.00 to 7.00 | > 7.00 | COc1cc(-c2ccc3c(=O)n([C@H]4CCN[C@@H](C)C4)ccc3n2)nn2cc(C)nc12 [Compound 1519, 2-(8-methoxy-2-methyl-imidazo[1,2-b]pyridazin-6-yl)-6-[(2S,4S)-2-methyl-4-piperidyl]-1,6-naphthyridin-5-one] | 0.1 to 1 µM
 | 6.00 to 7.00 | 6.00 to 7.00 | 6.00 to 7.00 | Cc1cn2nc(-c3ccc4c(=O)n([C@@H]5CCN(C)[C@H](C)C5)ncc4n3)cc(C)c2n1 [Compound 1527] | 0.1 to 1 µM
 | 6.00 to 7.00 | 6.00 to 7.00 | 6.00 to 7.00 | Cc1cn2nc(-c3ccc4c(=O)n([C@H]5CCN(C)[C@@H](C)C5)ncc4n3)cc(C)c2n1 [Compound 1528, 2-(2,8-dimethylimidazo[1,2-b]pyridazin-6-yl)-6-(1,2-dimethyl-4-piperidyl)pyrido[2,3-d]pyridazin-5-one] | 0.1 to 1 µM
 | > 7.00 | > 7.00 | > 7.00 | CCN1CC[C@@H](n2ncc3nc(-c4cc(C)c5nc(C)cn5n4)ccc3c2=O)CC12CC2 [Compound 1530] | < 0.1 µM
 | 6.00 to 7.00 | 6.00 to 7.00 | 6.00 to 7.00 | CCN1CC[C@H](n2ncc3nc(-c4cc(C)c5nc(C)cn5n4)ccc3c2=O)CC12CC2 [Compound 1531] | 0.1 to 1 µM
 | 6.00 to 7.00 | 6.00 to 7.00 | 6.00 to 7.00 | Cc1cn2nc(-c3ccc4c(=O)n([C@H]5CCN(C)C6(CC6)C5)ncc4n3)cc(C)c2n1 [Compound 1533] | 0.1 to 1 µM
 | 6.00 to 7.00 | > 7.00 | > 7.00 | Cc1cn2nc(-c3ccc4c(=O)n([C@@H]5CCN(C)C6(CC6)C5)ncc4n3)cc(C)c2n1 [Compound 1534] | 0.1 to 1 µM
> 7.00 | 6.00 to 7.00 | 6.00 to 7.00 |  | Cc1cn2nc(-c3ccc4c(=O)n(C5CCN(CCO)C6(CC6)C5)ncc4n3)cc(C)c2n1 (centres unmarked) [Compound 1541, 2-(2,8-dimethylimidazo[1,2-b]pyridazin-6-yl)-6-[4-(2-hydroxyethyl)-4-azaspiro[2.5]octan-7-yl]pyrido-[2,3-d]pyridazin-5-one] | 0.1 to 1 µM
 | 5.00 to 6.00 | 5.00 to 6.00 | 6.00 to 7.00 | Cc1cn2nc(-c3ccc4c(=O)n(C5CCN(CCF)C6(CC6)C5)ncc4n3)cc(C)c2n1 (centres unmarked) [Compound 1542, 2-(2,8-dimethylimidazo[1,2-b]pyridazin-6-yl)-6-[4-(2-fluoroethyl)-4-azaspiro[2.5]octan-7-1]pyrido[2,3-d]pyridazin-5-one] | 1 to 10 µM
 | 6.00 to 7.00 | 6.00 to 7.00 | > 7.00 | Cc1cn2nc(-c3ccc4c(=O)n(C5CCN(CC6CC6)C6(CC6)C5)ncc4n3)cc(C)c2n1 (centres unmarked) [Compound 1543, 6-[4-(cyclopropylmethyl)-4-azaspiro[2.5]octan-7-yl]-2-(2,8-dimethylimidazo[1,2-b]pyridazin-6-yl)pyrido[2,3-d]pyridazin-5-one] | 0.1 to 1 µM
 | 6.00 to 7.00 | 6.00 to 7.00 | > 7.00 | Cc1cn2nc(-c3ccc4c(=O)n([C@@H]5CCNC6(CCC6)C5)ncc4n3)cc(C)c2n1 [Compound 1545, 6-[(8R)-5-azaspiro[3.5]nonan-8-yl]-2-(2,8-dimethylimidazo[1,2-b]pyridazin-6-yl)pyrido[2,3-d]pyridazin-5-one] | 0.1 to 1 µM
 | 5.00 to 6.00 | 5.00 to 6.00 | 6.00 to 7.00 | Cc1cn2nc(-c3ccc4c(=O)n(C5CCNC6(CCC6)C5)ncc4n3)cc(C)c2n1 (centres unmarked) [Compound 1553] | 1 to 10 µM
 | < 5.00 | < 5.00 | < 5.00 | Cn1cc2ccc(-n3cnc4ccc(NC5CCNCC5)cc4c3=O)cc2n1 [Compound 2164] | > 10 µM
 | < 5.00 | < 5.00 | < 5.00 | Cc1cc(-c2ccc3ncn(C4CCNCC4)c(=O)c3c2)cc2cn(C)nc12 [Compound 2169] | > 10 µM

SMILES | pIC50 (HTT; [1]) | pIC50 (MYB mRNA; [2]) | pIC50 (MYB mRNA; [3]) | pIC50 (HTT; [4]) | AC50 (MYB mRNA; RT-qPCR)
Cc1c(O)c(-c2ncc3c(=O)n([C@@H]4C[C@H]5COC[C@@H](C4)N5)ccc3n2)cc2cn(C)nc12 [Compound 1471] |  | > 7.00 | > 7.00 | 6.00 to 7.00 | < 0.1 µM
